From patent EP4722219A1 (Gan & Lee Pharmaceuticals Co., Ltd., priority 2023, dated 2024) come the findings set out here.

One assay deals with T1, AR protein (Homo sapiens, UniProt P10275, T878A).
T1 construct: host or cells: LNCaP FGC
T1 sequence (P10275 1-920 T878A): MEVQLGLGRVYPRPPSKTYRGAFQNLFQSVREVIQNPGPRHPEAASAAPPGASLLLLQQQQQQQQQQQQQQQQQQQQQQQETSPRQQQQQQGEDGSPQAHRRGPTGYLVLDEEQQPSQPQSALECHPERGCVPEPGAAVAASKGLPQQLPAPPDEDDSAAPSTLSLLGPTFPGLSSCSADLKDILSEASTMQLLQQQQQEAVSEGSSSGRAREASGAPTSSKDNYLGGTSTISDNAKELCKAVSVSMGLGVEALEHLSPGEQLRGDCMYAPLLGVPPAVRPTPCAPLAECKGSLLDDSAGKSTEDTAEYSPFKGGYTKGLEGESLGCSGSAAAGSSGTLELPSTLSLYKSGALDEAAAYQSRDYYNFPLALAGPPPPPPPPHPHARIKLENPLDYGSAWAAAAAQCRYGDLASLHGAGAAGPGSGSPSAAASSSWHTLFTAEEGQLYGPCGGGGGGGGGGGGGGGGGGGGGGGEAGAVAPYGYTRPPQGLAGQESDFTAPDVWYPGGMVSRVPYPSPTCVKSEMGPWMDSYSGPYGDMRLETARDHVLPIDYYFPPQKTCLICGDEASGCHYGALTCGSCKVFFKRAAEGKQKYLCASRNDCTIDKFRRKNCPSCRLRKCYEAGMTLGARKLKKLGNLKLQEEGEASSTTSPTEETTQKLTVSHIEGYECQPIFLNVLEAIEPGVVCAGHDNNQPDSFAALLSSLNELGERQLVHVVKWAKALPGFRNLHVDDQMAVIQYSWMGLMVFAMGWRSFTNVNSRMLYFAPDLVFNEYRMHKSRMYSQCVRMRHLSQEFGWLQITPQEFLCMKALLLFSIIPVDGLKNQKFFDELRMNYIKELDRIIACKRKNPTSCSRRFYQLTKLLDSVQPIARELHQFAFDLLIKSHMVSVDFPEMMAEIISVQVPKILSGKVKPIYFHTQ
In words: AR protein degradation in LNCaP cells (Western blot). Type of assay: cell-based. Conditions: 8 hours. In a few lines: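 AR degradation rate derived from Western blot band densitometry, referenced to GAPDH, using total lysates of LNCaP cells treated 8 h with compound versus solvent control. Detection used infrared dual-color imaging after SDS-PAGE and PVDF transfer.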
In general terms: Immunoblotting shows a protein as a band on a membrane.

The next assay relates to VCaP cells. In words: Inhibition of VCaP cell proliferation (WST-8). Type of assay: cell-based. The settings on record: 168 hours. In a few lines: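 Proliferation was read on day 9 as WST-8 absorbance at 450 nm after VCaP cells (15,000/well, DMEM/10% FBS, 37°C) were exposed from day 2 to compound at 9 points, 5-fold serial dilution, top final concentration 10 µM.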
A general note: Tetrazolium dyes change colour on reduction, which living cells bring about.

One may read the IC50 as the concentration at which inhibition is half-maximal. A higher IC50 goes with a need for much substance.

Consider `COc1cc(O[C@H]2C(C)(C)[C@H](NC(=O)c3ccc(N4CCC(CN5CCC6(CC5)COc5c6ccc(C(=O)N[C@H]6CCC(=O)NC6=O)c5F)(OC)CC4)cc3)C2(C)C)ccc1C#N` [A-P-86, 1'-((1-(4-(((1r,3r)-3-(4-cyano-3-methoxyphenoxy)-2,2,4,4-tetramethylcyclobutyl)carbamoyl)phenyl)-4-methoxypiperidin-4-yl)methyl)-N-((S)-2,6-dioxopiperidin-3-yl)-7-fluoro-2H-spiro[benzofuran-3,4'-piperidin]-6-carboxamide], for which, on AR protein, the “Degradation of AR protein in LNCaP cells, 10 nM (%)” value (“Degradation … 10 nM (%)” below) turned out to be 37% and the “Degradation of AR protein in LNCaP cells, 100 nM (%)” value (“Degradation … 100 nM (%)” below) amounted to 39%. Moreover, the IC50 with VCaP cells (Homo sapiens) turned out to be 1.79 µM.

Turning to `COc1cc(O[C@H]2C(C)(C)[C@H](NC(=O)c3ccc(N4CCC(CN5CCN6c7ccc(N[C@H]8CCC(=O)NC8=O)cc7OC[C@@H]6C5)CC4)cc3)C2(C)C)ccc1C#N` [A-P-100], at AR protein, the “Degradation … 10 nM (%)” value came out at 1% and the “Degradation … 100 nM (%)” value amounted to 48%. Moreover, 4.7 µM corresponded to half-maximal inhibition with VCaP cells (Homo sapiens) (IC50).

Take `COc1cc(O[C@H]2C(C)(C)[C@H](NC(=O)c3ccc(N4CCC(CN5CCN(c6ccc(C(=O)N[C@H]7CCC(=O)NC7=O)c(F)c6)CC5)CC4)cc3)C2(C)C)ccc1C#N` [ARV-766, reference compound]: at AR protein, the “Degradation … 10 nM (%)” value worked out at 49% and the “Degradation … 100 nM (%)” value is on record as 78%. Further, in the assay with VCaP cells, the IC50 is 0.779 µM.

On to “(R)-3-((1-(4-(((S)-2-(3-chloro-4-cyanophenyl)-3-methyl-2,8-diazaspiro[4.5]decan-8-yl)phenyl)piperidin-4-yl)methyl)-N-(((S)-2,6-dioxopiperidin-3-yl)-1,2,3,4,4a,5-hexahydrobenzo[b]pyrazi no[1,2-d][1,4]oxazine-8-carboxamide [A-P-58]”, for which, on AR protein, the “Degradation … 10 nM (%)” value is 63% and the “Degradation … 100 nM (%)” value is 87%. Besides, the IC50 in the assay with VCaP cells was 1.83 µM.

As to “(S)-3-((1-(4-(((S)-2-(3-chloro-4-cyanophenyl)-3-methyl-2,8-diazaspiro[4.5]decan-8-yl)phenyl)piperidin-4-yl)methyl)-N-(((S)-2,6-dioxopiperidin-3-yl)-1,2,3,4,4a,5-hexahydrobenzo[b]pyrazi no[1,2-d][1,4]oxazine-8-carboxamide [A-P-57]”, on AR protein, the “Degradation … 10 nM (%)” value is 39% and the “Degradation … 100 nM (%)” value turned out to be 76%. Half-maximal inhibition with VCaP cells (IC50) required 3.02 µM.

“N-(1r,4r)-4-(3-chloro-4-cyanophenoxy)cyclohexy 1)-6-(4-(7-(2,6-dioxopiperidin-3-yl))-6-oxo-7,8-dihydro-2H,6H-dipyrido[2,3-e]isoindole-3,1'-cyclohexane-4',4‴-piperidin]-1"-yl)pyridazine-3-carboxamide [A-P-32]”: at AR protein, the “Degradation … 10 nM (%)” value was 12% and the “Degradation … 100 nM (%)” value worked out at 46%. The compound also displayed an IC50 with VCaP cells of 1.23 µM.
